Results from patent publication US20090156477A1, “Compositions and Methods for Regulating Inflammatory Responses” (Massachusetts Institute of Technology, priority 2005, published 2009).
“Also recorded” adds a separate entry of the source. Blank lines part the entries; values can stand above or below the compound they belong to.

Experiments:
Caco-2 cells [1] = assay: Transepithelial resistance (TER) of Caco-2 monolayers; assay type: cell-based, human
Procedure: (§1) Caco-2 cells were grown close to confluence, and T84 cells were grown to confluence. The apical chambers of transwell plates with 6.5 mm diameter and 3 μm pore size filters were pretreated with 50 μl of 45 μg/ml collagen IV in 60% ethanol 24 hours prior to plating and incubated overnight at room temperature. After reaching confluence, cells were washed with 20 ml PBS and treated with 3.5 ml trypsin-EDTA per 175 cm^2 flask for 20-60 min at 37° C. until cells detached. Cells were resuspended in 16.5 ml media appropriate to the cell type. Each apical chamber was supplemented with 82 μl cell solution. The basolateral chamber was filled with 1 ml propagation media. Filters were fed with new media every two days over the course of experiments.
(§2) Caco-2 and T84 cells were allowed to grow on transwells to form monolayers. Monolayer formation was examined every other day by light microscopy as well as by transepithelial resistance (TER) measurements using an EVOM ohmmeter (World Precision Instruments, Sarasota, Fla.). After monolayer formation, cells were treated with 100 ng/ml FGF1, 100 ng/ml FGF2, 100 ng/ml FGF7 or an equivalent volume (10 μl) of PBS. TER measurements were made either after 72 hours or at each of the 30 minutes, 1 hour, 2 hours, 4 hours, 9 hours, 24 hours and 48 hours timepoints. To determine the effects of multiple additions of ligand, FGFs or PBS were added initially and again after 2 days, and TER measurements were made after 0, 2 and 5 days.
(§3) To probe the mechanism by which various FGFs induced cell mediated effects, various media treatments were employed. Ammonium tetrathiomolybdate (TM) was added 24 hours prior to the addition of ligands to yield a final concentration of 200 μM, sufficient to prevent the release of FGF1 [3]. Similarly, sodium chlorate, which reduces cell HSPGs and the sulfation of associated HSGAGs, was added 24 hours prior to the addition of ligands to yield a final concentration of 50 mM [33,34]. Antibodies and kinase inhibitors were added immediately prior to ligands. Antibodies to FGF1, FGFR1 and FGFR3 were added at a 1:100 dilution. Kinase inhibitors were added to yield final concentrations of 50 μM LY294002, 20 μM PD98059, 1 μM SB203580. All experiments were performed in triplicate.
Caco-2 cells were grown to just prior to confluency. The apical chambers of transwell plates with 6.5 mm diameter and 3 μm pore size filters were pretreated with 50 μl of 45 μg/ml mouse recombinant collagen IV (BD Biosciences, Bedford, Mass.) in 60% ethanol 24 hours prior to plating. Plates were incubated overnight at room temperature. Just prior to confluency, cells were washed with 20 ml phosphate buffered saline (PBS) and treated with 3.5 ml trypsin-EDTA per 175 cm^2 flask for 20-60 min at 37° C., until cells detached. Cells were resuspended in 16.5 ml media appropriate to the cell type. Each apical chamber was supplemented with 82 μl cell solution. The basolateral chamber was filled with 1 ml propagation media. Filters were fed with new media every two days over the course of experiments.
Caco-2 cells were allowed to grow on transwells to form monolayers. Monolayer formation was examined every other day by light microscopy as well as by TER measurements using an EVOM ohmmeter (World Precision Instruments, Sarasota, Fla.). After monolayer formation, cells were treated with 100 ng/ml recombinant human FGF1 (Amgen, Thousand Oaks, Calif.), 100 ng/ml recombinant human FGF2 [1], 100 ng/ml recombinant human FGF7 (Sigma, St. Louis, Mo.), or an equivalent volume (10 μl) of PBS. TER measurements were made after each of 30 minutes, 1 hour, 2 hours, 4 hours, 9 hours, 24 hours and 48 hours.
To probe the mechanism by which various FGFs induced cellular mediated effects, various media treatments were employed. TM was added 24 hours prior to the addition of ligands to yield a final concentration of 200 μM, sufficient to prevent the release of FGF1 [3]. […]

T84 cells [2] = assay: Transepithelial resistance (TER) of T84 monolayers; assay type: cell-based, human; settings: agent given before or with 100 ng/ml FGFs (TM 200 μM, sodium chlorate 50 mM, LY294002 50 μM, antibodies 1:100)
Procedure: as §1, §2, §3

FGF1 [3] = assay: Immunohistochemistry for FGF1 in Caco-2 cells; assay type: cell-based, human; settings: 200 μM TM for 24 hours
Procedure: (§4) To determine FGFR and FGF1 expression, Caco-2 cells were grown to just prior to confluence, and T84 cells were grown to confluence on collagen-coated glass slides. Cells were washed with PBS supplemented with 5% BSA. To stain for FGFR3, rabbit anti-human FGFR3 antibodies were added to cells at a 1:500 dilution and incubated for 1 hour. Cells were washed with PBS supplemented with 5% BSA, and FITC-conjugated goat anti-rabbit antibodies were added and incubated for 30 minutes. Cells were washed with BSA-PBS and examined using fluorescence microscopy. For FGF1 analysis, cells were treated with 200 μM TM or 10 μl PBS for 24 hours, formalin fixed, treated with goat anti-human FGF1 antibodies at a 1:200 dilution and incubated for 4 hours. Cells were washed with PBS supplemented with 5% BSA, and Texas red-conjugated donkey anti-goat antibodies were added and incubated for 1 hour. Cells were washed with BSA-PBS and examined using fluorescence microscopy.

FGF1 [4] = assay: Immunohistochemistry for FGF1 in T84 cells; assay type: cell-based, human; settings: 200 μM TM for 24 hours
Procedure: as §4

Caco-2 cells [5] = assay: Caco-2 proliferation assay (whole cell number); assay type: cell-based, human; settings: TM 200 μM, FGF1 added to TM treated cells
Procedure: (§5) Caco-2 cells were grown to just prior to confluence, and T84 cells were grown to confluence. Each flask was washed with 20 ml PBS and treated with 3 ml trypsin-EDTA at 37° C. for 20-60 minutes until cells detached. Cells were centrifuged for 3 minutes at 195×g. The supernatant was aspirated, and the cells were resuspended in 10 ml media. The cell density was measured using an electronic cell counter, and the suspension was diluted to 50,000 cells/ml. The suspension was plated at 1 ml/well into 12-well tissue culture plates. After a 24 hour incubation in a 5% CO2, 37° C. humidified incubator, the media was aspirated, the wells were washed with serum free media, and the cells were supplemented with media containing 0.1% FBS. The wells were then supplemented with 10 μl PBS, 50 mM sodium chlorate, or 200 μM TM, and incubated for 24 hours. Subsequently, cells were supplemented with 100 ng/ml FGF1, FGF2, FGF7, or 10 μl PBS, and incubated for 72 hours. Wells were then washed twice with PBS and treated with 0.5 ml trypsin-EDTA/well and incubated at 37° C. until cells detached. Whole cell number was determined using an electronic cell counter. Data was averaged over three experiments, each consisting of four wells per condition.

T84 cells [6] = assay: T84 proliferation assay (whole cell number); assay type: cell-based, human; settings: TM 200 μM, FGF1 added to TM treated cells
Procedure: as §5

[7] = molecular target: FGFR3b expressed by Caco-2 and T84 cells (human) (UniProt P22607); assay: cell-based or functional assay
Sequence of UniProt P22607 (P22607 23-806): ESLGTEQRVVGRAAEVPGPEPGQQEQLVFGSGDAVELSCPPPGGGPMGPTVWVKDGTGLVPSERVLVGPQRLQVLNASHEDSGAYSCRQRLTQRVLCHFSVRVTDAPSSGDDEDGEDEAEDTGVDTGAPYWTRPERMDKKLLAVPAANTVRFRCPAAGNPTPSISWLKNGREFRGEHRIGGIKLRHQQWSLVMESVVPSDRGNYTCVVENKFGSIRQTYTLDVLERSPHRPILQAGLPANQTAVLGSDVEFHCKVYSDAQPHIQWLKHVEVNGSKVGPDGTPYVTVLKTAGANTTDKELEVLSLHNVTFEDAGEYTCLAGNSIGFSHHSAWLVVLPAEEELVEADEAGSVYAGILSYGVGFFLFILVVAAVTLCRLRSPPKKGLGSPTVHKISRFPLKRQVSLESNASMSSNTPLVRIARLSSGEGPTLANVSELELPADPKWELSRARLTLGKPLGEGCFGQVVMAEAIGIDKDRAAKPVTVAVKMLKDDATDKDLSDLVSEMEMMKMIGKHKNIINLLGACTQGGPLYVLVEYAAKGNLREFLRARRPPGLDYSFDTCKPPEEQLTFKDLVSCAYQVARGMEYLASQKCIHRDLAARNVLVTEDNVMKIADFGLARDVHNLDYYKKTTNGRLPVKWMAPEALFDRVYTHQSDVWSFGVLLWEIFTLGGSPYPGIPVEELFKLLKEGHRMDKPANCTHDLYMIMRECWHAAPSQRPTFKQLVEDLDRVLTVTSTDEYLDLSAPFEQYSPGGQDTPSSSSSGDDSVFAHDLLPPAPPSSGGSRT

[8] = cell line not stated (Caco-2 and T84 cells studied), PD98059 20 μM, SB203580 1 μM, LY294002 50 μM, antibodies 1:100
[9] = Caco-2 cells, agent given before or with 100 ng/ml FGFs (TM 200 μM, sodium chlorate 50 mM, LY294002 50 μM, PMA 100 ng/ml, antibodies 1:100)

Compound: COc1cccc(-c2cc(=O)c3ccccc3o2)c1N [PD98059, reference compound]
effect of added agent on FGF-induced reduction in TER (Caco-2 cells [1]; [8]): failed to eliminate the ligand mediated inhibition of TER

Compound: CCCCCCCCCCCCCC(=O)O[C@@H]1[C@@H](C)[C@@]2(O)[C@@H](C=C(CO)C[C@]3(O)C(=O)C(C)=C[C@@H]23)[C@@H]2C(C)(C)[C@]12OC(C)=O [PMA, phorbol 12-myristate 13-acetate, reference compound]
effect of added agent on FGF-induced reduction in TER (Caco-2 cells [1]; [9]): prevented FGF2 and FGF7 activity, but not that of FGF1

Compound: C[S+]([O-])c1ccc(-c2nc(-c3ccncc3)c(-c3ccc(F)cc3)[nH]2)cc1 (stereo not shown) [SB203580, reference compound]
effect of added agent on FGF-induced reduction in TER (Caco-2 cells [1]; [8]): failed to eliminate the ligand mediated inhibition of TER

Compound: [Na+].[O-][Cl+2]([O-])[O-] [Sodium chlorate, sodium chlorate, reference compound]
effect of added agent on FGF-induced reduction in TER (T84 cells [2]): eliminated the ability
effect of added agent on FGF-induced reduction in TER (Caco-2 cells [1]; [9]): eliminated the ability; also recorded: abrogated the ability

Compound: [NH4+].[NH4+].[SH-].[SH-].[S]=[Mo]=[S] [TM, Ammonium tetrathiomolybdate, reference compound]
distribution of FGF1 (FGF1 [3]): retaining FGF1 closer to the nucleus
effect of added agent on FGF-induced reduction in TER (T84 cells [2]): prevented
effect of added agent on FGF-induced reduction in TER (Caco-2 cells [1]; [9]): abrogated the reduction in TER induced by FGF2
distribution of FGF1 (FGF1 [4]): retaining FGF1 closer to the nucleus
effect of added agent on proliferative effect of FGF2 and FGF7 (Caco-2 cells [5]): eliminated the proliferative effect of FGF2 and FGF7
effect of added agent on proliferative effect of FGF2 and FGF7 (T84 cells [6]): eliminated the proliferative effect of FGF2 and FGF7

Compound: Boiled FGF1: FGF1 that was boiled, used as control in the TER test
reduction of TER (in words) (Caco-2 cells [1]; cell line not stated (Caco-2 and T84 cells studied)): did not reduce TER

inhibition of increases in TER over three days, Caco-2 cells [7]: 35.1%
inhibition of increases in TER over three days, T84 cells [7]: 30.1%
reduction of TER at 48 hours, Caco-2 cells [7]: 45.1%
reduction of TER at 48 hours, T84 cells [7]: 22.7%
Compound: Recombinant human FGF1 (from UniProt P05230 16-155) (ligand)
